The results in this text go back to patent publication US7297714B2, “Inhibitors of cathepsin S” (IRM LLC, priority 2003, dated 2007).

Some results are limits rather than exact numbers.

Common to all, as to format: biochemical
One experiment has as its target Cathepsin S (Homo sapiens, UniProt P25774). In words: Cathepsin S inhibition assay (fluorogenic peptide substrate). The settings on record: Cathepsin S inhibition constant; pH5.5; read-out: Ki Cat. S. The source says:
“Inhibition constant”, Ki, is the dissociation constant of the enzyme-inhibitor complex, or the reciprocal of the binding affinity of the inhibitor to the enzyme. For classical inhibition the value of Ki is much greater than the enzyme concentration and the Ki can be measured by monitoring the rate of reaction for a competitive substrate at multiple inhibitor concentrations. The inhibited rates are then fit by nonlinear regression to the following equation: […]
The assumption being made for the classical inhibition described above is that the free inhibitor concentration is equal to the total inhibitor concentration. For inhibitors that have Ki's that are approximately equal to the enzyme concentration [E], the assumption that the free inhibitor concentration is equal to the total inhibitor concentration is no longer valid and an alternative equation has to be fit for determination of the apparent inhibition constant, Ki^app using described methods (Kuzmic, P., K. C. Elrod, et al., Anal Biochem 2000, 286(1), 45-50):
(§1) The optimal substrate for cathepsin S, acetyl-histidine-proline-valine-lysine-amino carbamoyl coumarin, was identified from screening a combinatorial library of fluorogenic peptide substrates (Harris, J. L., B. J. Backes, et al., Proc Natl Acad Sci U S A 2000, 97(14), 7754-9). Kinetic measurements are performed in a total reaction volume of 30 μl in 384-well microtiter plates. Cathepsin S, at a final concentration of 0.3-3 nM (active site), is incubated with the compounds at twelve varying concentrations in a buffer containing 100 mM NaAc (pH5.5), 1 mM EDTA, 100 mM NaCl, 0.01% Brij-35 for 20 minutes at room temperature. Control reactions in the absence of inhibitor are performed in replicates of 24. The reactions are initiated by adding the substrate, acetyl-histidine-proline-valine-lysine-amino carbamoyl coumarin, to a final concentration of 50 μM. The rate of substrate hydrolysis is measured by monitoring the increase in fluorescence at an excitation wavelength of 380 nm and an emission wavelength of 450 nm that results from cleavage of the aniline bond in the substrate by the enzyme. The apparent inhibition constants for the compounds are determined from the enzyme progress curves (Kuzmic, P., K. C. Elrod, et al., Anal Biochem 2000, 286(1), 45-50) and are then used to calculate the inhibition constants for competitive inhibitors.

In a further experiment the target is T1, Cathepsin K (Homo sapiens, UniProt P43235).
T1 sequence (P43235 115-329): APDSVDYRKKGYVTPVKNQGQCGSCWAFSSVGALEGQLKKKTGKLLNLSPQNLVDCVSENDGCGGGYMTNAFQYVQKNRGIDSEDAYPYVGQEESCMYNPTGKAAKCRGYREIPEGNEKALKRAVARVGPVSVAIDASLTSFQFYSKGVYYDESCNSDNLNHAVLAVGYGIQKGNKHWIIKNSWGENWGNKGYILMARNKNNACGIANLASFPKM
In words: Cathepsin K inhibition assay, selectivity for cathepsin S over cathepsin K. The settings on record: ratio of cathepsin K inhibition constant to cathepsin S inhibition constant. As to the method: as §1, with “cathepsin K, acetyl-lysine-histidine-proline-lysine-amino” for “cathepsin S, acetyl-histidine-proline-valine-lysine-amino”, “Sci USA” for “Sci U S A”, “Cathepsin K,” for “Cathepsin S,”, “of 3.5” for “of 0.3-3”, “substrate, acetyl-lysine-histidine-proline-lysine-amino” for “substrate, acetyl-histidine-proline-valine-lysine-amino”, “of 40” for “of 50”
Selectivity for cathepsin S in the presence of cathepsin isozymes was determined by the ratio of the cathepsin isozyme inhibition constant of a compound of the present invention to the cathepsin S inhibition constant of the same compound. Preferred compounds of the present invention selective for cathepsin S have ratios of greater than 10. More preferred compounds of the present invention selective for cathepsin S have ratios of greater than 100. Most preferred compounds of the present invention selective for cathepsin S have ratios of greater than 1000.

The next experiment deals with Caspase 8 (Homo sapiens, UniProt Q14790). Description: Inhibition Assay for Caspase 8. The settings on record: Caspase-8 inhibition constant; pH 7.4; read-out: Ki Cas-8. How it is done:
The widely used substrate for caspase 8, […]-amino carbamoyl coumarin, was used. Kinetic measurements are performed in a total reaction volume of 30 μl in 384-well microtiter plates. Caspase 8, at a final concentration of 0.2-1 nM (active site), is incubated with the compounds at twelve varying concentrations in a buffer containing 20 mM Hepes (pH 7.4), 1 mM EDTA, 100 mM NaCl, 0.1% CHAPS, 10% sucrose, 10 mM DTT for 20 minutes at room temperature. Control reactions in the absence of inhibitor are performed in replicates of 12. The reactions are initiated by adding the substrate to a final concentration of 2 μM. The rate of substrate hydrolysis is measured by monitoring the increase in fluorescence at an excitation wavelength of 380 nm and an emission wavelength of 450 nm that results from cleavage of the aniline bond in the substrate by the enzyme. The apparent inhibition constants for the compounds are determined from the enzyme progress curves (Kuzmic, Elrod et al. 2000) and are then used to calculate the inhibition constants for competitive inhibitors (Km=25.7 μM).

Sequence of Cathepsin S (P25774 115-331, species assumed): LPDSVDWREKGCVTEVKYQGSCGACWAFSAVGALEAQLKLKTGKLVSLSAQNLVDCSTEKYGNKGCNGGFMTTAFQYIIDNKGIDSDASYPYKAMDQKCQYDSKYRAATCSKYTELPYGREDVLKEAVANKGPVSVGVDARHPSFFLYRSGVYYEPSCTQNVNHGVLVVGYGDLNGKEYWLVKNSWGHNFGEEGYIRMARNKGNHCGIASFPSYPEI
Sequence of Caspase 8 (Q14790 217-374 limits assumed, species assumed): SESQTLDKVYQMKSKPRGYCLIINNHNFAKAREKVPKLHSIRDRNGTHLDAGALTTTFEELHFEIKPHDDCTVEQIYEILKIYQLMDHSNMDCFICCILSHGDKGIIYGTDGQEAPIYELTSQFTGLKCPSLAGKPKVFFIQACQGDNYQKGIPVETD
Sequence of Caspase 8 (Q14790 385-479 limits assumed, species assumed): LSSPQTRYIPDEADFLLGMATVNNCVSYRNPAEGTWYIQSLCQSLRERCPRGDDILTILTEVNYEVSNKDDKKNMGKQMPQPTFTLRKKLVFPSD

Consider `O=C1C[C@H](NC(=O)[C@H](CC2CCCC2)NC(=O)c2ccc(-c3cccc(F)c3)o2)C(O)O1` (stereo partly drawn) [Example 1, (3S)-(3-Cyclopentyl-(2S)-{[5-(3-fluoro-phenyl)-furan-2-carbonyl]-amino}-propionylamino)-4-oxo-butyric acid], for which the figures for the Ki at Cathepsin S and at Caspase 8 were under 0.1 µM and over 1 µM, respectively. The “Selectivity for Cat. S over Cat. K” value at Cathepsin K is given as “+ (+, >10)”.

With `O=C1C[C@H](NC(=O)[C@H](CC2CCCC2)NC(=O)N2CCOCC2)C(O)O1` (stereo partly drawn) [Example 2, (3S)-{3-Cyclopentyl-(2S)-[(morpholine-4-carbonyl)-amino]-propionylamino}-4-oxo-butyric acid], the values for the inhibitory constant (Ki) on Cathepsin S and at Caspase 8 were under 0.1 µM and over 10 µM, respectively. Also, the “Selectivity for Cat. S over Cat. K” value at Cathepsin K is recorded as “++ (++, >100)”.

With `O=C1C[C@H](NC(=O)[C@H](CC2CCCCC2)OC(=O)N2CCOCC2)C(O)O1` (stereo partly drawn) [Example 3, (3S)-{3-cyclohexyl-(2S)-(morpholine-4-carbonyloxy)-propionylamino}-4-oxo-butyric acid], the Ki is under 0.1 µM on Cathepsin S and over 10 µM on Caspase 8. For the same compound, at Cathepsin K, the “Selectivity for Cat. S over Cat. K” value is reported as “+ (+, >10)”.

As for `O=C[C@H](CC(=O)O)NC(=O)[C@@H](CC(=O)N1CCOCC1)CC1CCCC1` [Example 4, (3S)-[(2R)-Cyclopentylmethyl-4-morpholin-4-yl-4-oxo-butyrylamino]-4-oxo-butyric acid], the Ki at Cathepsin S is under 0.1 µM; at Caspase 8 it was over 10 µM. Further, the “Selectivity for Cat. S over Cat. K” value on Cathepsin K is reported as “+ (+, >10)”.

With `O=C1C[C@H](NC(=O)O[C@@H](CC2CCCC2)Cn2cnc3cc(Cl)c(Cl)cc32)C(O)O1` (stereo partly drawn) [Example 5, (3S)-[(1S)-Cyclopentylmethyl-2-(5,6-dichloro-benzoimidazol-1-yl)-ethoxycarbonylamino]-4-oxo-butyric acid], the inhibitory constant (Ki) on Cathepsin S is under 0.1 µM; on Caspase 8, over 10 µM. The “Selectivity for Cat. S over Cat. K” value at Cathepsin K is given as “+ (+, >10)”.

In the case of `O=C1C[C@H](NC(=O)[C@@H](CC(=O)N2CCOCC2)CC2CCCCC2)C(O)O1` (stereo partly drawn) [Example 6, (3S)-{(2R)-Cyclohexylmethyl-4-morpholin-4-yl-4-oxo-butyrylamino}-4-oxo-butyric acid], the Ki on Cathepsin S was under 0.1 µM; on Caspase 8, over 10 µM. Further, on Cathepsin K, the “Selectivity for Cat. S over Cat. K” value was “++ (++, >100)”.

With `O=C1C[C@H](NC(=O)[C@H](CC2CCCCC2)NS(=O)(=O)c2cccc(OC(F)(F)F)c2)C(O)O1` (stereo partly drawn) [Example 7, (3S)-[3-Cyclohexyl-(2S)-(3-trifluoromethoxy-benzenesulfonylamino)-propionylamino]-4-oxo-butyric acid], the inhibitory constant (Ki) is under 0.1 µM at Cathepsin S and over 10 µM at Caspase 8. Besides, on Cathepsin K, the “Selectivity for Cat. S over Cat. K” value is given as “++ (++, >100)”.

Regarding `O=C1C[C@H](NC(=O)[C@H](CC2CCCC2)NS(=O)(=O)c2cccc(OC(F)(F)F)c2)C(O)O1` (stereo partly drawn) [Example 8, (3S)-[3-Cyclopentyl-(2S)-(3-trifluoromethoxy-benzenesulfonylamino)-propionylamino]-4-oxo-butyric acid], the Ki is under 0.1 µM at Cathepsin S and over 10 µM on Caspase 8. Also, the “Selectivity for Cat. S over Cat. K” value at Cathepsin K is “++ (++, >100)”.

`CC(C)(C)C[C@H](OC(=O)N[C@H]1CC(=O)OC1O)C(=O)N1CCOCC1` (stereo partly drawn) [Example 9, (3S)-[3,3-Dimethyl-(1S)-(morpholine-4-carbonyl)-butoxycarbonylamino]-4-oxo-butyric acid]: the Ki is under 0.1 µM at Cathepsin S and over 100 µM on Caspase 8.

For the compound `O=C1C[C@H](NC(=O)O[C@@H](CC2CCCCC2)C(=O)N2CCOCC2)C(O)O1` (stereo partly drawn) [Example 10, (3S)-[2-cyclohexyl-(1S)-(morpholin-4-carbonyl)-ethoxycarbonylamino]-4-oxo-butyric acid], the Ki is under 0.1 µM at Cathepsin S and over 100 µM at Caspase 8. The “Selectivity for Cat. S over Cat. K” value on Cathepsin K is “++ (++, >100)”.
